Here are results for 18 molecules from US8759366B2, “Aminopyrimidines as SYK inhibitors” (Merck Sharp & Dohme Corp., priority 2009, dated 2014).

Bounds are passed on as bounds.

This experiment addresses rhSYK (Homo sapiens (Human), UniProt P43405). Conditions: read-out: rhSYK activity.

As to `Cc1cc(Nc2nccc(C(F)(F)F)n2)cc(-c2cnc(C3=CC(=O)NCCC3)s2)c1` [Example 10B-2], the IC50 is < 100 nM.

For the molecule `CC1(C)CC(O)(c2ncc(-c3cccc(Nc4nccc(C(F)(F)F)n4)c3)s2)CC(C)(C)S1` [Example 4B-8], the IC50 is 1000 to 10000 nM.

Consider `OC(c1ncc(-c2cc(Nc3nccc(C(F)(F)F)n3)cc(N3CCOCC3)c2)s1)(C1CC1)C1CC1` [Example 24, dicyclopropyl{5-[3-(morpholin-4-yl)-5-{[4-(trifluoromethyl)pyrimidin-2-yl]amino}phenyl]-1,3-thiazol-2-yl}methanol], for which the IC50 was < 100 nM.

As for `Cc1cc(Nc2nccc(C(F)(F)F)n2)cc(-c2cnc([C@]3(F)CC[C@@H](C(=O)O)CC3)s2)c1` [Example 26, cis-4-Fluoro-4-[5-(3-methyl-5-{[4-(trifluoromethyl)pyrimidin-2-yl]amino}phenyl)-1,3-thiazol-2-yl]cyclohexanecarboxylic acid], the IC50 is < 100 nM.

Turning to `Cc1cc(Nc2nccc(C(F)(F)F)n2)cc(-c2cnc(C3(O)CCC(C4(N)CC4)CC3)s2)c1` (stereo not drawn) [Example 4C-19], the IC50 is < 100 nM.

Turning to `Cc1cc(Nc2nccc(C(F)(F)F)n2)cc(-c2cnc(C(O)C(F)(F)F)s2)c1` (single isomer, unassigned) [Example 6-3], the IC50 is < 100 nM.

With `Cc1cc(Nc2nccc(C(F)(F)F)n2)cc(-c2cnc(C3(O)C[C@H]4CC(=O)C[C@H]4C3)s2)c1` (stereo partly drawn) [Example 4B-20], the IC50 is < 100 nM.

`Cc1cc(Nc2nccc(C(F)(F)F)n2)cc(-c2cncs2)c1` [Intermediate 4, N-[3-methyl-5-(1,3-thiazol-5-yl)phenyl]-4-(trifluoromethyl)pyrimidin-2-amine]: the IC50 was < 100 nM.

In the case of `Cc1cc(Nc2nccc(C)n2)cc(-c2cnc(C3(O)CCC(CO)CC3)s2)c1` (stereo not drawn) [Example 4C-9], the IC50 was < 100 nM.

`Cc1cc(Nc2nccc(C(F)(F)F)n2)cc(-c2cnc(C3(O)CCN(c4cccc(F)c4)CC3)s2)c1` [4D-10]: the IC50 lay in the range of 100 to 1000 nM.

`FC(F)(F)c1ccnc(Nc2cc(Br)cc(-c3cncs3)c2)n1` [Intermediate 11, N-[3-bromo-5-(1,3-thiazol-5-yl)phenyl]-4-(trifluoromethyl)pyrimidin-2-amine]: the IC50 lay within 100 to 1000 nM.

Consider `OC(c1ncc(-c2cccc(Nc3nccc(C(F)(F)F)n3)c2)s1)C1CC1` (stereo not drawn) [Example 4A-5, cyclopropyl[5-(3-{[4-(trifluoromethyl)pyrimidin-2-yl]amino}phenyl)-1,3-thiazol-2-yl]methanol], for which the IC50 is < 100 nM.

As to `Cc1cc(Nc2nccc(C(F)(F)F)n2)cc(-c2cnc([C@]3(O)CC[C@@H](c4n[nH]c(=O)o4)CC3)s2)c1` [Example 55, 5-{cis-4-hydroxy-4-[5-(3-methyl-5-{[4-(trifluoromethyl)pyrimidin-2-yl]amino}phenyl)-1,3-thiazol-2-yl]cyclohexyl}-1,3,4-oxadiazol-2(3H)-one], the IC50 was < 100 nM.

Consider `Cc1cc(Nc2ncc(Cl)c(C)n2)cc(-c2cnc(C(C)(O)CO)s2)c1` (stereo not drawn) [Ex 5-14], for which the IC50 was < 100 nM.

For `Cc1cc(Nc2ncc(F)c(C3CC3)n2)cc(-c2cnc(C(O)(CO)C(F)(F)F)s2)c1` (stereo not drawn) [Example 58, 2-(5-{3-[(4-cyclopropyl-5-fluoropyrimidin-2-yl)amino]-5-methylphenyl}-1,3-thiazol-2-yl)-3,3,3-trifluoropropane-1,2-diol], the IC50 was < 100 nM.

Turning to `Cc1cc(Nc2ncc(F)cn2)cc(-c2cncs2)c1` [Intermediate 50, 5-Fluoro-N-[3-methyl-5-(1,3-thiazol-5-yl)phenyl]pyrimidin-2-amine], the IC50 lay in the range of 100 to 1000 nM.

In the case of `Cc1cc(Nc2nccc(C(F)(F)F)n2)cc(-c2cnc(C3(O)CCC4(CC3)OCCO4)s2)c1` [Example 4B-15, 8-[5-(3-methyl-5-{[4-(trifluoromethyl)pyrimidin-2-yl]amino}phenyl)-1,3-thiazol-2-yl]-1,4-dioxaspiro[4.5]decan-8-ol], the IC50 was < 100 nM.

As to `Cc1cc(Nc2nccc(C(F)(F)F)n2)cc(-c2cnc(C3(O)CCCC(O)C3(C)C)s2)c1` (stereo not drawn) [Example 8B-3], the IC50 is < 100 nM.
